In BindingDB's records for doi:10.1021/jm00103a005 (National Institute On Drug Abuse, 1993):
Counter-ions that a name gives are not always drawn.

Experiments:
[1] = biological target: Sigma non-opioid intracellular receptor 1 (Cavia porcellus) (UniProt Q60492); test: Inhibition of specific binding of [3H]DTG to sigma binding site in Guinea pig brain membranes
[2] = biological target: Sigma non-opioid intracellular receptor 1 (Cavia porcellus) (UniProt Q60492); test: Inhibition of specific binding of [3H]NANM of sigma binding site in Guinea pig brain membranes
[3] = biological target: Sigma non-opioid intracellular receptor 1 (Cavia porcellus) (UniProt Q60492); test: Inhibition of specific binding of [125I]-PIPAG to sigma binding site in Guinea pig brain membranes
[4] = Inhibition of specific binding of [3H]DTG to sigma receptor in Guinea pig brain membranes
[5] = Inhibition of specific binding of [3H]3-PPP to sigma receptor in Guinea pig brain membranes
[6] = Inhibition of specific binding of [3H]3-PPP to sigma binding site in Guinea pig brain membranes

Chain of Sigma non-opioid intracellular receptor 1 (Cavia porcellus) (Q60492 whole entry, looked up): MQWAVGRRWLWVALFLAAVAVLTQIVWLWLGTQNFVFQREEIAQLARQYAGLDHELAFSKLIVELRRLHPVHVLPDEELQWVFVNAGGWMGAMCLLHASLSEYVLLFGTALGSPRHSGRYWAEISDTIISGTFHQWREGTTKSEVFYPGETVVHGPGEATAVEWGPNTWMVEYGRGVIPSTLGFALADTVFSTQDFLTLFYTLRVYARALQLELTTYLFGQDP

Structure (SMILES)	IC50 [1]	IC50 [2]	IC50 [3]	IC50 [4]	IC50 [5]	IC50 [6]
CN1CCc2cccc3c2[C@H]1Cc1ccc(O)c(O)c1-3 [APOKYN]	> 10000 nM	> 31000 nM	> 10000 nM			
C=CCN1CC[C@]23c4c5ccc(O)c4O[C@H]2[C@@H](O)C=C[C@H]3[C@H]1C5 [NALORPHINE HYDROCHLORIDE]	4000 nM	1800 nM	5000 nM	625 nM	93 nM	2850 nM
